Values joined by “and” are separate entries in the source; they are usually repeats but may differ in a detail not shown here. Equal values may be shown once.
Experiments:
[1] = tested on: DM93 melanoma xenografts; test: Melanoma flank xenograft in nude mice; type: in vivo
Experimental: (§1) All animal experiments were performed after approval of animal protocols by the Animal Care and Use Committee (ACUC) of the University of Virginia. Animals were housed and handled in accordance with the guidelines of the ACUC of the University of Virginia. The effect of pevonedistat on melanoma growth was tested in flank xenograft models. Foxn1^nu (20-25 g body weight, 4-5 weeks old females) athymic nude immune-deficient mice (Harlan Laboratories, now Envigo, Indianapolis, Ind., United States of America) were used in this study. Pevonedistat was dissolved in sterile 10% DMSO containing PBS (stock 1 mM), filtered, and stored in −20° C. until use. DM93, VMM39, SLM2, DM331, or SK-MEL-24 (2×10^6) melanoma cells were implanted in both flanks of immune-deficient mice (n=12 mice per group) and tumor growth was monitored until they grow to an average volume of 150-200 mm^3, and mice were randomized into groups for treatment. Animals were administered 0.2 mL pevonedistat solution (30 or 60 mg/kg body weight as indicated) intraperitoneally on a schedule of two cycles of five-day treatment followed by five treatment-free days, for 3 weeks, or more as indicated. Control animals were treated with an equal volume of sterile vehicle (10% DMSO in PBS). Where indicated, mice received control rodent diet, or rodent diet with 417 mg/kg PLX4720 (Research Diets, Inc. New Brunswick, N.J., United States of America). Tumors were measured with an electronic caliper every other day for 3 weeks post-drug injection. Animal weight was recorded once a week to detect any weight loss due to the toxicity of drug treatment or tumor burden. At the end of the treatment, animals were euthanized and tumors harvested for further processing. The results shown are mean tumor volumes±s.e.m; *p<0.05, **p<0.01, ***p<0.001.

[2] = tested on: SLM2 xenografts; test: Melanoma flank xenograft in nude mice; type: in vivo; details: 60 mg/kg; p=2.3×10^−3
Experimental: as §1

[3] = tested on: VMM39 xenografts; test: Melanoma flank xenograft in nude mice; type: in vivo; details: 60 mg/kg; p=1.8×10^−5
Experimental: as §1

[4] = tested on: DM331 xenografts; test: Melanoma flank xenograft in nude mice; type: in vivo; details: vs. vehicle; PLX4720 in rodent diet 417 mg/kg
Experimental: as §1

[5] = tested on: FaDu cells; test: Clonogenic survival assay for radiation sensitivity; type: cell-based, human; parameters: SF4: unit not given here; details: for SF4: S 0.1; for SER (sensitivity enhancement ratio): at 10% survival
Experimental: (§2) The effect of pevonedistat treatment or transient silencing of CDT2, geminin, or EMI1 on cell proliferation or on radiation sensitivity was tested using clonogenic survival assays. Cells were transfected with the appropriate si-RNA 48 hours prior to seeding. Cells were then counted using COUNTESS™ Automated Cell Counter (INVITROGEN™, Carlsbad, Calif., United States of America) and were seeded at 15,000 cells/plate in 60 mm dishes. Cells were irradiated 24 hours after seeding with various doses and were cultured for 7-10 days. Once colonies reached the appropriate size (>50 cells each), cells were washed twice with cold PBS, fixed in cold 100% methanol for 10 minutes, and stained with crystal violet (0.5%) for 10 minutes. The plates were washed, dried, and imaged using IMAGE LAB™ software (BioRad Laboratories, Inc., Hercules, Calif., United States of America). QUANTITY ONE® software (BioRad Laboratories, Inc., Hercules, Calif., United States of America) was used to quantify the number of colonies and survival curves were established based on the linear quadratic model, using the formula S=e^−αD-βD2; where S represents the surviving fraction and D the dose of irradiation. Results are represented as mean standard deviation (SD) of three independent experiments normalized to the corresponding non-irradiated plates for each group. When the effect of pevonedistat on cell radiosensitivity was tested, cells were seeded at 15,000 cells/60 mm plate and allowed to adhere for 4-6 hours. Pevonedistat was then added upon cell adherence at varying concentrations and cells were irradiated the following day. The duration of the experiment and the stopping procedure were as described above.

[6] = tested on: Cal27 cells; test: as above; type: cell-based, human; parameters: SF4: unit not given here; details: for SF4: S 0.1; for SER (sensitivity enhancement ratio): at 10% survival
Experimental: as §2

[7] = 10 nM pevonedistat 24 hours prior to irradiation
[8] = 20 nM pevonedistat 24 hours prior to irradiation
[9] = 40 nM pevonedistat 24 hours prior to irradiation
[10] = 60 nM pevonedistat 24 hours prior to irradiation
[11] = Cal27, 20 nM pevonedistat 24 hours prior to irradiation
[12] = Cal27, 40 nM pevonedistat 24 hours prior to irradiation
[13] = Cal27, 60 nM pevonedistat 24 hours prior to irradiation
[14] = Cal27, 80 nM pevonedistat 24 hours prior to irradiation

In the case of `NS(=O)(=O)OCC1CC(n2ccc3c(NC4CCc5ccccc54)ncnc32)CC1O` [pevonedistat, ((1S,2S,4R)-4-(4-((1S)-2,3-Dihydro-H-inden-1-ylamino)-7H-pyrrolo(2,3-d)pyrimidin-7-yl)-2-hydroxycyclopentyl)methyl sulphamate], the “growth of sg-control DM93 xenografts” value ([1]; 30 mg/kg, p=0.009) is reported as “significantly inhibited the growth”, the “growth of sg-p21-1 DM93 xenografts” value ([1]; 30 mg/kg, p=0.092) is reported as “failed to inhibit the growth” and the “growth of sg-SET8-1 DM93 xenografts” value ([1]; 30 mg/kg, p=0.66) is reported as “failed to inhibit the growth”. The tumor regression ([1]; 30 or 60 mg/kg) was “did not result in tumor regression”, the “tumor regrowth after cessation of treatment” value ([1]; either drug concentration, up to 10 days following cessation) was “not detectable” and the tolerability ([1]; nude mice, 30 or 60 mg/kg, 5 days on/5 days off, two cycles) was “well tolerated”. The “growth of SLM2 xenografts” value [2] was “significantly inhibited the growth”, the “growth of VMM39 xenografts” value [3] was “significantly inhibited the growth” and the “growth of DM331 xenografts” value [4] was “inhibited”. For the same molecule, the “α (linear quadratic model)” value [5, 7] was 0.105, the “β (linear quadratic model)” value [5, 7] was 0.017 and the SF4 ([5]; 10 nM pevonedistat) was 8.979. For the same molecule, the “SER (sensitivity enhancement ratio)” value ([5]; 10 nM pevonedistat) was 1.055, the “α (linear quadratic model)” value [5, 8] was 0.242 and the “β (linear quadratic model)” value [5, 8] was 0.006. The SF4 ([5]; 20 nM pevonedistat) was 7.987, the “SER (sensitivity enhancement ratio)” value ([5]; 20 nM pevonedistat) was 1.186 and the “α (linear quadratic model)” value [5, 9] was 0.241. For the same molecule, the “β (linear quadratic model)” value [5, 9] was 0.014, the SF4 ([5]; 40 nM pevonedistat) was 6.830 and the “SER (sensitivity enhancement ratio)” value ([5]; 40 nM pevonedistat) was 1.387. The “α (linear quadratic model)” value [5, 10] was 0.282, the “β (linear quadratic model)” value [5, 10] was 0.013 and the SF4 ([5]; 60 nM pevonedistat) was 6.328. The “SER (sensitivity enhancement ratio)” value ([5]; 60 nM pevonedistat) was 1.49 and 1.497, the “α (linear quadratic model)” value [6, 11] was 1.50 × 10^−13 and the “β (linear quadratic model)” value [6, 11] was 0.049. For the same molecule, the SF4 ([6]; Cal27, 20 nM pevonedistat) was 6.893, the “SER (sensitivity enhancement ratio)” value ([6]; Cal27, 20 nM pevonedistat) was 1.171 and the “α (linear quadratic model)” value [6, 12] was 0.108. For the same molecule, the “β (linear quadratic model)” value [6, 12] was 0.052, the SF4 ([6]; Cal27, 40 nM pevonedistat) was 5.692 and the “SER (sensitivity enhancement ratio)” value ([6]; Cal27, 40 nM pevonedistat) was 1.419. For the same molecule, the “α (linear quadratic model)” value [6, 13] was 0.471, the “β (linear quadratic model)” value [6, 13] was 0.009 and the SF4 ([6]; Cal27, 60 nM pevonedistat) was 4.457. For the same molecule, the “SER (sensitivity enhancement ratio)” value ([6]; Cal27, 60 nM pevonedistat) was 1.812, the “α (linear quadratic model)” value [6, 14] was 0.906 and the “β (linear quadratic model)” value [6, 14] was −0.020. The SF4 ([6]; Cal27, 80 nM pevonedistat) was 2.702 and the “SER (sensitivity enhancement ratio)” value ([6]; Cal27, 80 nM pevonedistat) was 2.702.
